Results on seven compounds are retold here after patent US10829520B2, “Beta-hairpin peptidomimetics” (POLYPHOR AG, priority 2015, dated 2020).

Where a SMILES comes first, the peptide text is derived from it. Bridges are numbered along the chain shown (N, C = ends). [ ]: non-standard residue; d: D form. aThr = C[C@H](O)[C@H](N)C(=O)O; Tle = CC(C)(C)[C@H](N)C(=O)O; Nle = CCCC[C@H](N)C(=O)O; Dab = NCC[C@H](N)C(=O)O; Dap = NC[C@H](N)C(=O)O; Aib = CC(C)(N)C(=O)O

Common to all, as to type: cell-based
In series [1] the test system is Escherichia coli ATCC 25922. The conditions noted are these: ATCC 25922. In short, it runs like this: (§1)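 MIC in μg/mL read as absence of visible growth after 18-20 h incubation at 35° C. Bacteria at about 10^6 CFU/mL in MH-II (cation-adjusted) broth plus 0.002% P-80 were exposed to two-fold peptide dilutions per standard CLSI microdilution.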
The next series deals with Escherichia coli 926415. The conditions noted are these: 926415.
Series [2] relates to Pseudomonas aeruginosa ATCC 27853. The conditions noted are these: ATCC 27853. The essentials:
as §1

Series [3] has as its system Acinetobacter baumannii DSM 30008. The conditions noted are these: DSM 30008. The essentials:
as §1

Series [4] has as its system Acinetobacter baumannii 872842. The settings on record: 872842.
For series [5], the system named is Klebsiella pneumoniae SSI #3010. The settings on record: SSI #3010. In short, it runs like this: as §1
Series [6] has as its system Klebsiella pneumoniae 968733. The conditions noted are these: 968733.
Series [7] relates to human red blood cells (hRBC). Briefly: Hemolysis of human red blood cells. The conditions noted are these: red cells of human, 1 h, 100 μg/mL. The essentials: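 Percent hemolysis = OD540 of peptide-treated supernatant relative to the 2.5% Triton X-100 (100%) control, PBS containing 0.001% acetic acid defining 0%. Peptides tested at 100 μg/mL against 20% (v/v) washed human RBC, 1 h, 37 °C, 300 rpm.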

With `CCCC[C@@H]1NC(=O)[C@@H]2CCCN2C(=O)[C@H]2CCCN2C(=O)[C@H](CO)NC(=O)[C@H](C)NC(=O)[C@H](C(C)(C)C)NC(=O)[C@@H](NC(=O)[C@H](Cc2c[nH]c3ccccc23)NC(C)=O)CSSC[C@@H](C(=O)N[C@@H](CCN)C(=O)N[C@H](C(=O)N[C@@H](CCN)C(=O)N[C@H]2CCNC(=O)[C@H]([C@@H](C)O)NC(=O)[C@H](CCN)NC(=O)[C@H](CCN)NC(=O)[C@H](CC(C)C)NC(=O)[C@@H](Cc3ccccc3)NC(=O)[C@H](CCN)NC2=O)[C@H](C)O)NC(=O)[C@H](Cc2ccc(O)cc2)NC(=O)[C@H](CO)NC1=O` [Ex. 21] (Ac-WC[Tle]AS[dP]P[Nle]SYC[Dab][aThr][Dab][Dab][Dab][dF]L[Dab][Dab]T; disulfide 2-11; lactam 15-C), in series [1], the “Escherichia coli ATCC 25922 MIC” value was 0.25 mg/L. Besides, in the series on Escherichia coli 926415, the “Escherichia coli 926415 MIC” value was 1 mg/L. Besides, in series [2], the “Pseudomonas aeruginosa ATCC 27853 MIC” value was found to be 0.5 mg/L. In addition, in series [3], the “Acinetobacter baumannii DSM 30008 MIC” value turned out to be 0.25 mg/L. Moreover, in series [4], the “Acinetobacter baumannii 872842 MIC” value was 1 mg/L. For the same compound, the “Klebsiella pneumoniae SSI #3010 MIC” value in series [5] was determined as 0.25 mg/L. For the same compound, the “Klebsiella pneumoniae 968733 MIC” value in series [6] came to 2 mg/L. Besides, the “Hemolysis at 100 μg/mL” value in series [7] was below 1%.

With `CCCC[C@@H]1NC(=O)[C@@H]2CCCN2C(=O)[C@H]2CCCN2C(=O)[C@H](CO)NC(=O)[C@H](C)NC(=O)[C@H](C(C)(C)C)NC(=O)[C@@H](NC(=O)[C@H](Cc2c[nH]c3ccccc23)NC(C)=O)CSSC[C@@H](C(=O)N[C@@H](CCN)C(=O)NCC(=O)N[C@@H](CCN)C(=O)N[C@H]2CCNC(=O)[C@H]([C@@H](C)O)NC(=O)[C@H](CCN)NC(=O)[C@H](CCN)NC(=O)[C@H](CC(C)C)NC(=O)[C@@H](Cc3ccccc3)NC(=O)[C@H](CCN)NC2=O)NC(=O)[C@H](Cc2ccc(O)cc2)NC(=O)[C@H](CO)NC1=O` [Ex. 22] (Ac-WC[Tle]AS[dP]P[Nle]SYC[Dab]G[Dab][Dab][Dab][dF]L[Dab][Dab]T; disulfide 2-11; lactam 15-C), the “Escherichia coli ATCC 25922 MIC” value in series [1] is 0.125 mg/L. For the same compound, in the series with Escherichia coli 926415, the “Escherichia coli 926415 MIC” value is 0.5 mg/L. Further, in series [2], the “Pseudomonas aeruginosa ATCC 27853 MIC” value was determined as 0.25 mg/L. For the same compound, the “Acinetobacter baumannii DSM 30008 MIC” value in series [3] was found to be 0.5 mg/L. Also, the “Acinetobacter baumannii 872842 MIC” value in series [4] came out at 0.125 mg/L. Further, the “Klebsiella pneumoniae SSI #3010 MIC” value in series [5] is 0.25 mg/L. For the same compound, the “Klebsiella pneumoniae 968733 MIC” value in series [6] came to 1 mg/L. Further, the “Hemolysis at 100 μg/mL” value in series [7] is recorded as below 1%.

Consider `CCCC[C@@H]1NC(=O)[C@@H]2CCCN2C(=O)[C@H]2CCCN2C(=O)[C@H](CO)NC(=O)[C@H](C)NC(=O)[C@H](C(C)(C)C)NC(=O)[C@@H](NC(=O)[C@H](Cc2c[nH]c3ccccc23)NC(C)=O)CSSC[C@@H](C(=O)N[C@@H](CCN)C(=O)NC(C)(C)C(=O)N[C@@H](CCN)C(=O)N[C@H]2CCNC(=O)[C@H]([C@@H](C)O)NC(=O)[C@H](CCN)NC(=O)[C@H](CCN)NC(=O)[C@H](CC(C)C)NC(=O)[C@@H](Cc3ccccc3)NC(=O)[C@H](CCN)NC2=O)NC(=O)[C@H](Cc2ccc(O)cc2)NC(=O)[C@H](CO)NC1=O` [Ex. 23] (Ac-WC[Tle]AS[dP]P[Nle]SYC[Dab][Aib][Dab][Dab][Dab][dF]L[Dab][Dab]T; disulfide 2-11; lactam 15-C), for which the “Escherichia coli ATCC 25922 MIC” value in series [1] stood at 0.25 mg/L. Besides, the “Escherichia coli 926415 MIC” value with Escherichia coli 926415 was 0.5 mg/L. Besides, in series [2], the “Pseudomonas aeruginosa ATCC 27853 MIC” value was 0.5 mg/L. In addition, the “Acinetobacter baumannii DSM 30008 MIC” value in series [3] came out at 0.5 mg/L. Also, the “Acinetobacter baumannii 872842 MIC” value in series [4] was 0.5 mg/L. In series [5], the “Klebsiella pneumoniae SSI #3010 MIC” value turned out to be 0.25 mg/L. The “Klebsiella pneumoniae 968733 MIC” value in series [6] was found to be 2 mg/L. The “Hemolysis at 100 μg/mL” value in series [7] turned out to be 1%.

On to `CCCC[C@@H]1NC(=O)[C@@H]2CCCN2C(=O)[C@H]2CCCN2C(=O)[C@H](CO)NC(=O)[C@H](C)NC(=O)[C@H](C(C)(C)C)NC(=O)[C@@H](NC(=O)[C@H](Cc2c[nH]c3ccccc23)NC(C)=O)CSSC[C@@H](C(=O)N[C@@H](CCN)C(=O)N[C@H](C(=O)N[C@@H](CCN)C(=O)N[C@H]2CCNC(=O)[C@H]([C@@H](C)O)NC(=O)[C@H](CNC(=O)[C@@H](N)CCC(=O)O)NC(=O)[C@H](CCN)NC(=O)[C@H](CC(C)C)NC(=O)[C@@H](Cc3ccccc3)NC(=O)[C@H](CCN)NC2=O)[C@@H](C)O)NC(=O)[C@H](Cc2ccc(O)cc2)NC(=O)[C@H](CO)NC1=O` [Ex. 25] (Ac-WC[Tle]AS[dP]P[Nle]SYC[Dab]T[Dab][Dab][Dab][dF]L[Dab][Dap](Glu)T; disulfide 2-11; lactam 15-C), for which the “Escherichia coli ATCC 25922 MIC” value in series [1] turned out to be 2 mg/L. Further, in the series with Escherichia coli 926415, the “Escherichia coli 926415 MIC” value amounted to 3 mg/L. Moreover, the “Pseudomonas aeruginosa ATCC 27853 MIC” value in series [2] is 4 mg/L. The “Acinetobacter baumannii DSM 30008 MIC” value in series [3] was 1 mg/L. Moreover, the “Acinetobacter baumannii 872842 MIC” value in series [4] was 1 mg/L. The “Klebsiella pneumoniae SSI #3010 MIC” value in series [5] worked out at 4 mg/L. In addition, the “Klebsiella pneumoniae 968733 MIC” value in series [6] came out at 8 mg/L. For the same compound, in series [7], the “Hemolysis at 100 μg/mL” value was found to be 3%.

For the compound `CCCC[C@@H]1NC(=O)[C@@H]2CCCN2C(=O)[C@H]2CCCN2C(=O)[C@H](CO)NC(=O)[C@H](C)NC(=O)[C@H](C(C)(C)C)NC(=O)[C@@H](NC(=O)[C@H](Cc2c[nH]c3ccccc23)NC(C)=O)CSSC[C@@H](C(=O)NCC(=O)N[C@@H](CCN)C(=O)N[C@H](C(=O)N[C@@H](CCN)C(=O)N[C@H]2CCNC(=O)[C@H]([C@@H](C)O)NC(=O)[C@H](CCN)NC(=O)[C@H](CCN)NC(=O)[C@H](CC(C)C)NC(=O)[C@@H](Cc3ccccc3)NC(=O)[C@H](CCN)NC2=O)[C@@H](C)O)NC(=O)[C@H](Cc2ccc(O)cc2)NC(=O)[C@H](CO)NC1=O` [Ex. 26] (Ac-WC[Tle]AS[dP]P[Nle]SYCG[Dab]T[Dab][Dab][Dab][dF]L[Dab][Dab]T; disulfide 2-11; lactam 16-C), in series [1], the “Escherichia coli ATCC 25922 MIC” value worked out at 0.0625 mg/L. Besides, the “Escherichia coli 926415 MIC” value with Escherichia coli 926415 was 0.25 mg/L. In series [2], the “Pseudomonas aeruginosa ATCC 27853 MIC” value amounted to 0.25 mg/L. Further, in series [3], the “Acinetobacter baumannii DSM 30008 MIC” value turned out to be 0.5 mg/L. Moreover, in series [4], the “Acinetobacter baumannii 872842 MIC” value came out at 0.125 mg/L. Also, in series [5], the “Klebsiella pneumoniae SSI #3010 MIC” value amounted to 0.25 mg/L. In addition, the “Klebsiella pneumoniae 968733 MIC” value in series [6] was 0.5 mg/L. Further, in series [7], the “Hemolysis at 100 μg/mL” value was below 1%.

With `CCCC[C@@H]1NC(=O)[C@@H]2CCCN2C(=O)[C@H]2CCCN2C(=O)[C@H](CO)NC(=O)[C@H](C)NC(=O)[C@H](C(C)(C)C)NC(=O)[C@@H](NC(=O)[C@H](Cc2c[nH]c3ccccc23)NC(C)=O)CSSC[C@@H](C(=O)N[C@@H](CCN)C(=O)N[C@@H](CCN)C(=O)N[C@H](C(=O)N[C@@H](CCN)C(=O)N[C@H]2CCNC(=O)[C@H]([C@@H](C)O)NC(=O)[C@H](CCN)NC(=O)[C@H](CCN)NC(=O)[C@H](CC(C)C)NC(=O)[C@@H](Cc3ccccc3)NC(=O)[C@H](CCN)NC2=O)[C@@H](C)O)NC(=O)[C@H](Cc2ccc(O)cc2)NC(=O)[C@H](CO)NC1=O` [Ex. 27] (Ac-WC[Tle]AS[dP]P[Nle]SYC[Dab][Dab]T[Dab][Dab][Dab][dF]L[Dab][Dab]T; disulfide 2-11; lactam 16-C), the “Escherichia coli ATCC 25922 MIC” value in series [1] amounted to 0.0625 mg/L. Further, the “Escherichia coli 926415 MIC” value with Escherichia coli 926415 stood at 0.5 mg/L. Further, the “Pseudomonas aeruginosa ATCC 27853 MIC” value in series [2] was found to be 0.25 mg/L. In addition, in series [3], the “Acinetobacter baumannii DSM 30008 MIC” value was found to be 0.125 mg/L. Further, the “Acinetobacter baumannii 872842 MIC” value in series [4] is 0.125 mg/L. For the same compound, the “Klebsiella pneumoniae SSI #3010 MIC” value in series [5] stood at 0.125 mg/L. Also, in series [6], the “Klebsiella pneumoniae 968733 MIC” value turned out to be 0.5 mg/L. The “Hemolysis at 100 μg/mL” value in series [7] is below 1%.

Turning to `CCCC[C@@H]1NC(=O)[C@@H]2CCCN2C(=O)[C@H]2CCCN2C(=O)[C@H](CO)NC(=O)[C@H](C)NC(=O)[C@H](C(C)(C)C)NC(=O)[C@@H](NC(=O)[C@H](Cc2c[nH]c3ccccc23)NC(C)=O)CSSC[C@@H](C(=O)N[C@@H](C)C(=O)N[C@@H](CCN)C(=O)N[C@H](C(=O)N[C@@H](CCN)C(=O)N[C@H]2CCNC(=O)[C@H]([C@@H](C)O)NC(=O)[C@H](CCN)NC(=O)[C@H](CCN)NC(=O)[C@H](CC(C)C)NC(=O)[C@@H](Cc3ccccc3)NC(=O)[C@H](CCN)NC2=O)[C@@H](C)O)NC(=O)[C@H](Cc2ccc(O)cc2)NC(=O)[C@H](CO)NC1=O` [Ex. 28] (Ac-WC[Tle]AS[dP]P[Nle]SYCA[Dab]T[Dab][Dab][Dab][dF]L[Dab][Dab]T; disulfide 2-11; lactam 16-C), in series [1], the “Escherichia coli ATCC 25922 MIC” value came to 0.25 mg/L. Also, in the series on Escherichia coli 926415, the “Escherichia coli 926415 MIC” value stood at 1.5 mg/L. Also, in series [2], the “Pseudomonas aeruginosa ATCC 27853 MIC” value was determined as 0.5 mg/L. The “Acinetobacter baumannii DSM 30008 MIC” value in series [3] stood at 0.5 mg/L. In series [4], the “Acinetobacter baumannii 872842 MIC” value was determined as 1 mg/L. The “Klebsiella pneumoniae SSI #3010 MIC” value in series [5] is 0.25 mg/L. The “Klebsiella pneumoniae 968733 MIC” value in series [6] is 0.375 mg/L. In addition, the “Hemolysis at 100 μg/mL” value in series [7] is reported as 1%.
